Test results reported in patent US20200339604A1, “PYRAZOLOPYRIMIDINE COMPOUNDS AS JAK INHIBITORS” (Genentech, Inc., priority 2018, published 2020).
pIC50, pKi: −log10 of the molar value. Like-named read-outs stand apart in the source and are kept apart here.

Columns and labels:
[1] = target: T1, isolated recombinant JAK1 kinase domain (Homo sapiens, UniProt P23458); test: JAK enzyme assay, JAK1 kinase domain (Caliper LabChip); type: biochemical; details: 1.5 nM JAK1, ATP 25 μM, Morrison tight binding model
T1 construct: isolated recombinant JAK1 and JAK2 kinase domain
T1 sequence (P23458 875-1153 limits assumed): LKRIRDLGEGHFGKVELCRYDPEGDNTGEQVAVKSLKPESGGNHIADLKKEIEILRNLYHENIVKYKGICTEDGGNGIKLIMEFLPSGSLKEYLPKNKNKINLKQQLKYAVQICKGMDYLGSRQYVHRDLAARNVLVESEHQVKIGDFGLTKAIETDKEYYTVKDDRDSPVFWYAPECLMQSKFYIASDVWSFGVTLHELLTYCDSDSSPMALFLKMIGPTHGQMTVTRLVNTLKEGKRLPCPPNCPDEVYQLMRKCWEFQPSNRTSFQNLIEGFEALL
Protocol: (§1) JAK Enzyme Assays were Carried Out as Follows:
(§2) The activity of the isolated recombinant JAK1 and JAK2 kinase domain was measured by monitoring phosphorylation of a peptide derived from JAK3 ([…] fluorescently labeled on the N-terminus with 5-carboxyfluorescein) using the Caliper LabChip® technology (Caliper Life Sciences, Hopkinton, Mass.). To determine inhibition constants (K), compounds were diluted serially in DMSO and added to 50 μL kinase reactions containing purified enzyme (1.5 nM JAK1, or 0.2 nM JAK2), 100 mM HEPES buffer (pH 7.2), 0.015% Brij-35, 1.5 μM peptide substrate, ATP (25 μM), 10 mM MgCl2, 4 mM DTT at a final DMSO concentration of 2%.
(§3) Reactions were incubated at 22° C. in 384-well polypropylene microtiter plates for 30 minutes and then stopped by addition of 25 µL of an EDTA containing solution (100 mM HEPES buffer (pH 7.2), 0.015% Brij-35, 150 mM EDTA), resulting in a final EDTA concentration of 50 mM. After termination of the kinase reaction, the proportion of phosphorylated product was determined as a fraction of total peptide substrate using the Caliper LabChip® 3000 according to the manufacturer's specifications. K values were then determined using the Morrison tight binding model (Morrison, J. F., Biochim. Biophys. Acta. 185:269-296 (1969); William, J. W. and Morrison, J. F., Meth. Enzymol., 63:437-467 (1979)) modified for ATP-competitive inhibition [Ki=Ki, app/(1+[ATP]/Km,app)].

[2] = target: T2, isolated recombinant JAK2 kinase domain (Homo sapiens, UniProt O60674); test: JAK enzyme assay, JAK2 kinase domain (Caliper LabChip); type: biochemical; details: 0.2 nM JAK2, ATP 25 μM, Morrison tight binding model
T2 construct: isolated recombinant JAK1 and JAK2 kinase domain
T2 sequence (O60674 849-1124 limits assumed): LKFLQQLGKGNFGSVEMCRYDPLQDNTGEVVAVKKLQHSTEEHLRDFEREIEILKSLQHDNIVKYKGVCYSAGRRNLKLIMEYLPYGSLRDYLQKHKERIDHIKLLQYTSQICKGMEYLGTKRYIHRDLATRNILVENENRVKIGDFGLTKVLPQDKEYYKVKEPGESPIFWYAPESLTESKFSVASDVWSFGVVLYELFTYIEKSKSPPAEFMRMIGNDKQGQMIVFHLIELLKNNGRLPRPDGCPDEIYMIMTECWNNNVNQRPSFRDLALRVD
Protocol: as §1, §2, §3

[3] = system: JAK1-dependent STAT6 phosphorylation downstream of IL-13 stimulation, BEAS-2B human bronchial epithelial cells; test: JAK1 pathway assay in cell lines: IL-13 stimulated STAT6 phosphorylation in BEAS-2B cells (MSD); type: cell-based; details: IL-13 stimulation 15 min at EC90, read-out: IL-13 p-STAT6 BEAS-2B IC50
Protocol: JAK1 Pathway Assay in Cell Lines was Carried Out as Follows:
Inhibitor potency (EC50) was determined in cell-based assays designed to measure JAK1 dependent STAT phosphorylation. As noted above, inhibition of IL-4, IL-13, and IL-9 signaling by blocking the Jak/Stat signaling pathway can alleviate asthmatic symptoms in pre-clinical lung inflammation models (Mathew et al., 2001, J Exp Med 193(9): 1087-1096; Kudlacz et. al., 2008, Eur J. Pharmacol 582(1-3): 154-161).
In one assay approach, TF-1 human erythroleukemia cells obtained from the American Type Culture Collection (ATCC; Manassas, Va.) were used to measure JAK1-dependent STAT6 phosphorylation downstream of IL-13 stimulation. Prior to use in the assays, TF-1 cells were starved of GM-CSF overnight in OptiMEM medium (Life Technologies, Grand Island, N.Y.) supplemented with 0.5% charcoal/dextran stripped fetal bovine serum (FBS), 0.1 mM non-essential amino acids (NEAA), and 1 mM sodium pyruvate. The assays were run in 384-well plates in serum-free OptiMEM medium using 300,000 cells per well. In a second assay approach, BEAS-2B human bronchial epithelial cells obtained from ATCC were plated at 100,000 cells per well of a 96-well plate one day prior to the experiment. The BEAS-2B assay was run in complete growth medium (bronchial epithelial basal medium plus bulletkit; Lonza; Basel, Switzerland).
Test compounds were serially diluted 1:2 in DMSO and then diluted 1:50 in medium just before use. Diluted compounds were added to the cells, for a final DMSO concentration of […], and incubated for 30 m (for the TF-1 assay) or […] (for the BEAS-2B assay) at 37° C. Then, cells were stimulated with human recombinant cytokine at their respective EC90 concentrations, as previously determined for each individual lot. Cells were stimulated with IL-13 (R&D Systems, Minneapolis, Minn.) for 15 min at 37° C. The TF-1 cell reactions were stopped by the direct addition of 10× lysis buffer (Cell Signaling Technologies, Danvers, Mass.), whereas the BEAS-2B cell incubations were halted by the removal of medium and addition of 1× lysis buffer. The resultant samples were frozen in the plates at −80° C. Compound mediated inhibition of STAT6 phosphorylation was measured in the cell lysates using MesoScale Discovery (MSD) technology (Gaithersburg, Md.).

SMILES	pKi [1]	pKi [2]	pIC50 [3]	pIC50 ([3]; Homo sapiens, BEAS-2B, […])
O=C(Nc1cn(C2CCOC2=O)nc1-c1cc(SC(F)F)ccc1OC(F)F)c1cnn2cccnc12 (single isomer, unassigned) [Example 32, N-[3-[2-(difluoromethoxy)-5-(difluoromethyl-sulfanyl)phenyl]-1-(2-oxotetrahydrofuran-3-yl)pyrazol-4-yl]pyrazolo[1,5-a]pyrimidine-3-carboxamide]	9.77	9.96	8.18	
CSc1ccc(OC(F)F)c(-c2nn(C3CCOC3=O)cc2NC(=O)c2cnn3cccnc23)c1 (single isomer, unassigned) [Example 29, N-[3-[2-(difluoromethoxy)-5-methylsulfanyl-phenyl]-1-(2-oxotetrahydrofuran-3-yl)pyrazol-4-yl]pyrazolo[1,5-a]pyrimidine-3-carboxamide]	9.52	9.82		8.04
O=C(Nc1cn(C2CCOC2=O)nc1-c1cc(Cl)ccc1OC(F)F)c1cnn2cccnc12 (single isomer, unassigned) [Example 27, N-[3-[5-chloro-2-(difluoromethoxy)phenyl]-1-(2-oxotetrahydrofuran-3-yl)pyrazol-4-yl]pyrazolo[1,5-a]pyrimidine-3-carboxamide]	9.11	9.30	7.62	
O=C(Nc1cn(C2CCOC2=O)nc1-c1cc(Cl)ccc1OC(F)F)c1cnn2cccnc12 (single isomer, unassigned) [Example 28, N-[3-[5-chloro-2-(difluoromethoxy)phenyl]-1-(2-oxotetrahydrofuran-3-yl)pyrazol-4-yl]pyrazolo[1,5-a]pyrimidine-3-carboxamide]	9.46	9.70	7.96	
CN1CC[C@@H](n2cc(NC(=O)c3cnn4cccnc34)c(-c3cc(Cl)ccc3OC(F)F)n2)C1=O (stereo in doubt) [Example 3, N-[3-[5-chloro-2-(difluoromethoxy)phenyl]-1-[rac-(3R)-1-methyl-2-oxo-pyrrolidin-3-yl]pyrazol-4-yl]pyrazolo[1,5-a]pyrimidine-3-carboxamide]	8.60	9.09		7.30
CN1CCCC(n2cc(NC(=O)c3cnn4cccnc34)c(-c3cc(Cl)ccc3OC(F)F)n2)C1=O (single isomer, unassigned) [Example 20, N-[3-[5-chloro-2-(difluoromethoxy)phenyl]-1-(1-methyl-2-oxo-3-piperidyl)pyrazol-4-yl]pyrazolo[1,5-a]pyrimidine-3-carboxamide]	9.32	8.82	7.62	
O=C(Nc1cn(C2CCCCC2=O)nc1-c1cc(Cl)ccc1OC(F)F)c1cnn2cccnc12 (racemic) [Example 1, N-[3-[5-chloro-2-(difluoromethoxy)phenyl]-1-(2-oxocyclohexyl)pyrazol-4-yl] pyrazolo [1,5-a] pyrimidine-3-carboxamide]	8.96	8.85		7.48
O=C(Nc1cn([C@H]2CCNC2=O)nc1-c1cc(Cl)ccc1OC(F)F)c1cnn2cccnc12 (single isomer, unassigned) [Example 4, N-[3-[5-chloro-2-(difluoromethoxy)phenyl]-1-(2-oxopyrrolidin-3-yl)pyrazol-4-yl]pyrazolo[1,5-a]pyrimidine-3-carboxamide]	9.11	9.40		7.62
